Assays:
scar formation in pigs = test: Remote effect of local s.c. fat injection on scar formation in pigs (RZL-012 vs Kythera/Kybella); assay type: in vivo; details: pig; for Collagen fibers in scar-tissue (H & E histology): compared with Kythera scar tissue
Source text: The objective of this study is to evaluate the remote effect on local injection of RZL-012 of the invention (5-(3,6-dibromo-9H-carbazol-9-yl)-N,N,N-trimethylpentan-1-aminium) into the s.c. fat, on scar formation in pigs, compared with Kybella (an injectable formulation of Deoxycholate developed by Kythera) an agent that bluntly destroys s.c. fat.
• 1. Kythera preparation (according to published formulation): an aqueous solution of 5% Phosphatidylcholine, 4.75% Sodium deoxycholate and 0.9% Benzyl Alcohol. • 2. RZL-012 of the invention (5-(3,6-dibromo-9H-carbazol-9-yl)-N,N,N-trimethylpentan-1-aminium) of the invention preparation: 5.0% (w/v) RZL-012 in the below indicated formulation: […]
Eighty kilogram pigs were injected with either Kythera or RZL-012 of the invention preparation, into the s.c. fat (1 cm depth, 27 G needle), at 10 sites, divided into two clusters, on the right flank only. The injection at each site was of a volume of 0.5 ml. In addition, a cut through the s.c. fat was made at the midline of each pig at the right and at the left flank.
Animals were housed in the animal unit of Biotechfarm, Israel and fed on a diet weighing 2% of body weight (B.W.) per day divided to two meals, based on the last effective weekly body weighing.
After 2 months from the day of treatment, the animals were sacrificed; the scars on both sides were photographed before and after making a cross section in the middle of each scar. Thereafter, tissue samples of all cross-sections were formalin-fixed and processed for H & E histology staining.

kidney fibrosis = test: Unilateral ureteral ligation (UUO) kidney fibrosis model; assay type: in vivo, rat; details: male SD rats, RZL-012 15 mg s.c. into fat at Day 14 and Day 42, sacrifice 8 weeks after UUO, vs Vehicle
Experimental: • Animals: Male SD Rats, 250 g. • Induction of kidney fibrosis: Overnight fasted rats were anesthetized (a mixture of Ketamine 20 mg/kg and Xylazin 2 mg/kg IP). The abdominal cavity was exposed via a midline incision up to 0.5-1 cm before penis about 3 cm along. Then the bladder was lifted out and epididymal fat was remoted. The left ureter was ligated at two points with 4-0 sutures. The wound was closed in layers with the same sutures. Then animals were returned to the cages. […] The tissue sections were stained with Masson-Trichrome which enable a distinction between fibrotic tissue (staining collagen fiber in Blue) and normal viable tissue (Purple-Red) (see FIG. 6C). • Quantification of kidney fibrosis: In order to quantify, in an unbiased way, the fibrotic response in RZL-treated vs. non-treated rats, the dimensions of the fibrotic layer surrounding aortic blood vessel, were measured. All aortic vessels in each affected kidney were analyzed in the following way: The vessel wall consists of two components, the usual Muscular layer and an outer layer, excessively rich in collagen, in these kidneys, hereby defined as “Adventitia” (FIG. 6C). The net width of the adventitia and that of the Muscular layer were calculated as follows: […]

For `C[N+](C)(C)CCCCCn1c2ccc(Br)cc2c2cc(Br)ccc21` [RZL-012, 5-(3,6-dibromo-9H-carbazol-9-yl)-N,N,N-trimethylpentan-1-aminium], the “Macroscopic view of the scar at the left, non-treated side” value (scar formation in pigs; 2 months after s.c. fat injection on right flank only, external view, compared with Kythera treated pig) was “much finer”, the “Scar tissue seen after a cross section through the scar (macroscopic)” value (scar formation in pigs; 2 months sacrifice, cross-section through the middle of the scar, non-treated side (L)) was “no apparent scare tissue was observed” and the “Difference in the scar tissue width” value (scar formation in pigs; 2 months, H & E histology, careful measurement, RZL-012 vs Kythera treated pig) was 4-5 times. For the same compound, the “Collagen fibers in scar-tissue (H & E histology)” value (scar formation in pigs; 2 months, X20 objective magnification) was “less collagen fibers”, the “Collagen fibers in scar-tissue (H & E histology)” value (scar formation in pigs; 2 months, X40 objective magnification) was “less collagen fibers” and the “Width of fibrotic tissue (scar histology, H & E)” value (scar formation in pigs; 2 months, both sides, X10 objective magnification, RZL-012 vs Kythera treated pig) was “much thinner”. The “Kidney fibrosis (Adventitia/Muscular layers ratio, Masson-Trichrome)” value (kidney fibrosis) was “significant inhibition of kidney fibrosis”.
